# Test results reported in publication PMC4147338, “Host defense peptides for treatment of colorectal carcinoma – a comparative in vitro and in vivo analysis” (Oncotarget, 2014).
# Tests used:
# [1] = test system: HROC18 cells; assay: Apoptosis/necrosis assay, YO-PRO-1/PI flow cytometry; type: cell-based, human; conditions: HROC18, 24h, background cell death subtracted
# Experimental: (§1) Figure 5 Apoptosis/necrosis assay and Western blot analysis (A, B) HROC18 and HROC24 cells were exposed to increasing HDP concentrations for a period of 24 hours. Tumor cells were stained with YO-PRO-1 for detecting early and late apoptotic tumor cells. Prior to flow cytometric analysis, PI was added to detect necrotic cells, as well. (A) Representative dot plots showing HDP-treated HROC24 cells at a concentration of 5 μM. Lower right quadrant: early apoptotic cells; upper right quadrant: late apoptotic cells; upper left quadrant: necrotic cells. (B) For cell death quantification, values of background cell death (=untreated controls) were subtracted from values of HDP-treated cells. Left panel: HROC24 cell; right panel: HROC18 cells. (C, E) Representative western blot results showing HDP-treated HROC24 cells (20 μg of total protein per lane). (D, F) Quantitative analysis of BAX and HSP90 expression in HDP-treated cells was done as described in material & methods. Expression levels of untreated cells were set to be =1 and x-fold increases of HDP-exposed cells were calculated. […] Values are given as mean ± SD.
# (§2) Cell death was quantified by YO-PRO-1 (Invitrogen) and PI double staining. Selected tumor cells (HROC24 and HROC18, 1 × 10^4 cells/well) were seeded in 24-well plates and incubated overnight. Thereafter, peptides were added in increasing concentrations (ranging from 0.25 μM – 12.5 μM). Untreated cells served as living control. Following a 24-hour incubation period, supernatants were collected; cells were trypsinized and washed in PBS. Cells were stained with YO-PRO-1 (final concentration: 0.2 μM) for 20 min at room temperature. Prior to flow cytometric analysis, PI was added at a final concentration of 100 μg/ml. For cell death quantification, values of background cell death (=untreated controls) were subtracted from values of HDP-treated cells.
# [2] = test system: HDP-responsive cell lines (e.g. HROC24); assay: Western blot analysis of Bax and HSP90 expression; type: cell-based, human; conditions: normalized to β-actin, untreated =1
# Experimental: Figure 5 Apoptosis/necrosis assay and Western blot analysis (A, B) HROC18 and HROC24 cells were exposed to increasing HDP concentrations for a period of 24 hours. Tumor cells were stained with YO-PRO-1 for detecting early and late apoptotic tumor cells. Prior to flow cytometric analysis, PI was added to detect necrotic cells, as well. (A) Representative dot plots showing HDP-treated HROC24 cells at a concentration of 5 μM. Lower right quadrant: early apoptotic cells; upper right quadrant: late apoptotic cells; upper left quadrant: necrotic cells. (B) For cell death quantification, values of background cell death (=untreated controls) were subtracted from values of HDP-treated cells. […] (D, F) Quantitative analysis of BAX and HSP90 expression in HDP-treated cells was done as described in material & methods. Expression levels of untreated cells were set to be =1 and x-fold increases of HDP-exposed cells were calculated. […]
# Cellular protein extracts were obtained from HDP-treated and control cells following incubation with lysis buffer (1 M Tris, pH 7.5, 5 M sodium chloride, 0.25 M ethylenediaminetetraacetic acid, 10% (v/v) triton-x 100, 4% (v:v) sodium azide, 0.1 M phenylmethane-sulfonylfluoride, protease inhibitor cocktail (Roche, Mannheim, Germany)) on ice for 30 min. […] Signal integrated intensities were quantified applying the Odyssey® software version 3.16. […]
# [3] = test system: whole blood cells of healthy donors; assay: Hemolysis assay, hemoglobin release; type: cell-based, human; conditions: whole blood of healthy donors (n=6), 0.25-12.5 μM, 120 min incubation (text: 24h), absorption 540 nm, 1% SDS = maximum lysis
# Experimental: Figure 6 Hemolysis and lymphotoxicity assays (A) Hemolytic activity of HDPs was determined by hemoglobin release from whole blood cells after 120 min incubation. Negative controls were left untreated whereas positive controls (=maximum lysis) were treated with 1% SDS. Hemolytic activity was quantified as described in the material and methods section. (B) PBLs were incubated in the presence of increasing HDP concentrations for a period of 24 hours. Viability was analyzed using Calcein-AM and quantified in comparison to untreated controls, which were set to be =1. […] Experiments were performed in triplicates. Values are given as the mean x-fold increase ± SD.
# Hemolytic activity of HDPs was determined by hemoglobin release from whole blood cells after 120 min incubation. Briefly, whole blood of healthy donors (n=6) was seeded in 96-well plates and supplemented with HDPs at given concentrations (ranging from: 0.25 μM – 12.5 μM). Negative controls were left untreated and positive controls (=maximum lysis) were treated with 1% SDS. Following the incubation period, cell-free supernatants were transferred into a new 96-well plate and absorption was measured on a plate reader at 540 nm (reference wave length: 690 nm). Hemolytic activity was quantified according to the following formula: % hemolysis=((OD540nm sample−OD540nm buffer)/OD540nm max−OD540nm buffer)*100
# [4] = FRET spectroscopy probe dilution assay, membrane intercalation; type: binding; conditions: NBD-PE/rhodamine-PE, peptide 0.2-0.8 μM, 20 mM HEPES 150 mM NaCl pH 7.4, 37°C
# Experimental: FRET spectroscopy served as a sensitive tool to detect lipid dependence of the membrane interaction of antimicrobial peptides. For this, all peptides were added to liposomes consisting of zwitterionic PC alone, of a mixture of PC and of negatively charged PS, as well as of pure PS (Figure 1). All lipid vesicles were doped with donor and acceptor dyes, peptides were added, and the emission intensities of both dyes were monitored over time. An increase of the fluorescence intensity of the donor (IDonor) and a simultaneous decrease of the fluorescence intensity of the acceptor dye (IAcceptor), i.e. a reduced FRET efficacy, indicated an increase in the overall mean distance between labeled phospholipids, and corresponded to an insertion of peptides into the lipid bilayer. For clarity, the IDonor/IAcceptor ratio is shown (Figure 1).
# Figure 1 FRET spectroscopy. (A-C) Binding to and insertion of peptide C7A-D21K into phospholipid membranes (A) C7A-D21K was added at time point 50 s to liposomes (10 μM) consisting of pure PC, (B) a 90:10 molar mixture of PC:PS, and (C) of pure PS, each doubly doped with the fluorescently labeled FRET pair NBD-PE (donor) and rhodamine-PE (acceptor). Intercalation was monitored by measuring donor and acceptor fluorescence emission intensities. For better visualization only the quotient (IDonor/IAcceptor) is shown. Addition of the peptide solvent alone had no effect (dotted grey line). Peptide concentrations used: 0.2 μM (dotted black line, only in C), 0.4 μM (solid grey line, only in C), and 0.8 μM (solid black line). (D-F) Binding to and insertion of peptides at different concentrations into phospholipid membranes. (A) Peptides were added to liposomes consisting of pure PC, (B) a 90:10 molar mixture of PC:PS, and (C) of pure PS, each doubly doped with the fluorescently labeled phospholipid FRET pair NBD-PE (donor) and rhodamine-PE (acceptor). Intercalation was monitored by measuring donor and acceptor fluorescence intensities. The relative increase of the IDonor/IAcceptor ratio 250 s after peptide addition is shown (Increase of IDonor/IAcceptor (%) = (IDonor/IAcceptor (peptide) - IDonor/IAcceptor (control))*100). Peptide concentrations used: 0.2 μM (open bars), 0.4 μM (grey bars), and 0.8 μM (black bars).
# Intercalation of peptides into liposome membranes was determined by FRET spectroscopy applied as a probe dilution assay. Liposomes were prepared by dissolving appropriate lipid mixtures (pure PC, a 90:10 molar mixture of PC:PS, as well as pure PS, each doped with 1% of the donor dye NBD-PE and 1% of the acceptor dye rhodamine-PE) in chloroform and drying them under a gentle stream of nitrogen. The resulting lipid film was dispersed in 20 mM HEPES, 150 mM NaCl, pH 7.4, sonicated for 30 min and subjected to 3-4 temperature cycles from 4 to 60°C with an incubation period of 30 min at each step. Lipid dispersions were stored at 4°C overnight before use. For the assay, donor fluorescence (NBD) was excited at 470 nm, and donor (NBD, ID at 531 nm) as well as acceptor (rhodamine, IA at 593 nm) emission intensities were monitored over time. An increase of the ratio of the donor fluorescence intensity to that of the acceptor fluorescence intensity (IDonor/I^Acceptor) was interpreted as a membrane intercalation event. This ratio depends on the Förster efficiency, therefore a rising value means that the mean distance separation of donor and acceptor dyes is raising. The assay was performed at 37°C.
# [5] = test system: HCT116 cells; assay: Calcein-AM cell viability staining, 24h; type: cell-based, human; conditions: HCT116, 24h, 0.25-12.5 μM
# Experimental: (§3) Figure 4 HDP-mediated cytotoxicity towards tumor cells Quantitative analysis of direct cytotoxicity towards tumor cells following a 24h incubation period with increasing HDP concentrations. Viability was assessed using Calcein-AM staining. Remaining viable tumor cells were quantified in comparison to untreated controls, which were set to be =1. […] Values are given as the mean x-fold increase ± SD. *p<0.05 vs. NK11; **p<0.01 vs. NK11.
# (§4) This assay is based on Calcein-acetoxymethylester (Calcein-AM; Invitrogen, Darmstadt, Germany) staining to detect viable cells within a culture. Tumor and normal (PBL) cells (1-2 × 10^4 cells/well in triplicates) were seeded in 96-well plates and incubated overnight. Thereafter, peptides were added in increasing concentrations (ranging from 0.25 μM – 12.5 μM). Untreated cells served as living cell control. Medium was removed after 1h or 24h, respectively. Calcein-AM ([…]) was added and incubated for 30 min (37°C, 5% CO2). Analysis was performed on a fluorescence multi-well plate reader (Tecan Infinite® M200, Crailsheim, Germany) at an excitation wavelength of 485 nm (emission 535 nm). For estimation of cell viability, the relative fluorescence intensities of Calcein-AM-stained non-treated cells (=live control) were set to be 1, and fluorescence intensities of samples were calculated. Data of at least three independent experiments each performed in […] are given.
# [6] = test system: HROC24 cells; assay: Calcein-AM cell viability staining, 24h; type: cell-based, human; conditions: HROC24, 24h, 0.25-12.5 μM
# Experimental: as §3, §4
# [7] = test system: HROC24 cells; assay: Apoptosis/necrosis assay, YO-PRO-1/PI flow cytometry; type: cell-based, human
# Experimental: as §1, §2
molecule,measurement,setting,value
CC[C@H](C)[C@H](NC(=O)CN)C(=O)NCC(=O)N[C@@H](C)C(=O)N[C@H](C(=O)N[C@@H](CC(C)C)C(=O)N[C@@H](CCCCN)C(=O)N[C@H](C(=O)N[C@@H](CC(C)C)C(=O)N[C@H](C(=O)N[C@H](C(=O)NCC(=O)N[C@@H](CC(C)C)C(=O)N1CCC[C@H]1C(=O)N[C@@H](C)C(=O)N[C@@H](CC(C)C)C(=O)N[C@H](C(=O)N[C@@H](CO)C(=O)N[C@@H](Cc1c[nH]c2ccccc12)C(=O)N[C@H](C(=O)N[C@@H](CCCCN)C(=O)N[C@@H](CCCNC(=N)N)C(=O)N[C@@H](CCCCN)C(=O)N[C@@H](CCCNC(=N)N)C(=O)N[C@@H](CCC(N)=O)C(=O)N[C@@H](CCC(N)=O)C(N)=O)[C@@H](C)CC)[C@@H](C)CC)[C@@H](C)O)[C@@H](C)O)C(C)C)C(C)C [Melittin],total killing,[1],71%
same,HSP90 protein expression,[2],dose-dependently induced
same,hemolysis,[3],below 20%
"KILRGVAKKIMRTFLRR ILTGKK [Peptide C7A-Δ, C7A shortened by deletion of four amino acid residues]",Membrane intercalation (increase of IDonor/IAcceptor),[4]; PC:PS 90:10 liposomes 10 μM,slightly impaired
same,Membrane intercalation (increase of IDonor/IAcceptor),[4]; pure PS liposomes 10 μM,pronounced
same,Lytic activity towards tumor cells,[5],as effective as the reference compound Mellitin
same,Lytic activity towards tumor cells,[6],as effective as the reference compound Mellitin
same,total killing,[1],up to 60%
same,Levels of viable HROC24 cells,"[7]; 24h, higher concentrations",17%
same,Tumor killing compared with Melittin,"[7]; HROC24, 24h",as effective in tumor killing as Melittin
